Structures can show the parent of a compound that is named as a salt.
Molecular target: NLRP3 (Homo sapiens, UniProt Q96P20)
Assay: Human whole blood IL1β release assay (LPS + nigericin, AlphaLisa IL-1β)
Format: cell-based
Parameters: Plate out 80 μl of whole blood containing 1βg/ml of LPS in 96-well, clear bottom cell culture plate; from tissue; host or cells: human whole blood from healthy donors, LPS-primed and nigericin-stimulated
Settings: NLRP3 inhibitory activity in human whole blood, IL-1β release, 10 μM nigericin, read-out: HWB IC50
Experimental: For systemic delivery, the ability to inhibit NLRP3 when the compounds are present within the bloodstream is of great importance. For this reason, the NLRP3 inhibitory activity of a number of compounds in human whole blood was investigated in accordance with the following protocol.
Human whole blood in Li-heparin tubes was obtained from healthy donors from a volunteer donor panel. • 1. Plate out 80 μl of whole blood containing 1βg/ml of LPS in 96-well, clear bottom cell culture plate (Corning #3585) • 2. Add 10 μl compound (8 points half-log dilution with 10 μM top dose) or vehicle (DMSO 0.1% FAC) to the appropriate wells • 3. Incubate for 3 hrs at 37° C., 5% CO2 • 4. Add 10 μl Nigericin (Sigma # N7143) (10 μM FAC) to all wells • 5. Incubate for 1 hr at 37° C., 5% CO2 • 6. At the end of the incubation period, spin plates at 300×g for 5 mins to pellet cells and remove 20 μl of supernatant and add to 96-well v-bottom plates for IL-1β analysis (note: these plates containing the supernatants can be stored at −80° C. to be analysed at a later date) • 7. IL-1β was measured according to the manufacturer protocol (Perkin Elmer-AlphaLisa IL-1 Kit AL220F-5000) • 8. IC50 data is fitted to a non-linear regression equation (log inhibitor vs response-variable slope 4-parameters)

NLRP3, sequence (Q96P20 whole entry): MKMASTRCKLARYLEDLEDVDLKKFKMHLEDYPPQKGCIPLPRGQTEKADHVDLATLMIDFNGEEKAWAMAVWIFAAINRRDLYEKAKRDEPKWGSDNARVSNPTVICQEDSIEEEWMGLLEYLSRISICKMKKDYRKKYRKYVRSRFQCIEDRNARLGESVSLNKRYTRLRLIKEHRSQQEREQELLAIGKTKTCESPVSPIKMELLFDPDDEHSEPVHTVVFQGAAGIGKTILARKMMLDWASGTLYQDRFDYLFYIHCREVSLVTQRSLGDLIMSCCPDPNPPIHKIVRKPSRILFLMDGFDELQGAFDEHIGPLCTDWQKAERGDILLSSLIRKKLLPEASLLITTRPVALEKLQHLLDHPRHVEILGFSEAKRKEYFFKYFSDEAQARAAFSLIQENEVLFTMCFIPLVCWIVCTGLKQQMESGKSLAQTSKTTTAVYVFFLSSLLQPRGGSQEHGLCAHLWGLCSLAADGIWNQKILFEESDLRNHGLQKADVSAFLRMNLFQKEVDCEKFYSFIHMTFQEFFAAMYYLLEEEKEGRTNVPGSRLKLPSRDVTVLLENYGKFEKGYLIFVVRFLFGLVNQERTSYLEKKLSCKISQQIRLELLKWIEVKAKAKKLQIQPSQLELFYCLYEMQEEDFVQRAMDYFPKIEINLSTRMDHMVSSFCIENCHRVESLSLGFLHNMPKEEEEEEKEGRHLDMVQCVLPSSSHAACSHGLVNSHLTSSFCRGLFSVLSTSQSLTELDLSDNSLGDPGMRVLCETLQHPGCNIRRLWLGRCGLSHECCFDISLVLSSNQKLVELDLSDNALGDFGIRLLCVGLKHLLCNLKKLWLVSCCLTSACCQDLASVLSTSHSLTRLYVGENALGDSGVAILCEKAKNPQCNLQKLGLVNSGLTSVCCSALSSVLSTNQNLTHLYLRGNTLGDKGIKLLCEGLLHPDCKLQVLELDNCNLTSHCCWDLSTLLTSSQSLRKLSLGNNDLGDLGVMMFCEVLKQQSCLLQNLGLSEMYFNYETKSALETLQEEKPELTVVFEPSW

| IC50 [nM] | Compound |
| --- | --- |
| ≤ 1000 | CC(C)N1CCCC1CS(=O)(=O)NC(=O)Nc1c2c(cc3c1CCC3)CCC2 (stereo not drawn) [Example 107, N-((1,2,3,5,6,7-Hexahydro-s-indacen-4-yl)carbamoyl)-1-(1-isopropylpyrrolidin-2-yl)methanesulfonamide] |
| ≤ 1000 | COc1cc(-c2cc(F)cc(C(C)C)c2NC(=O)NS(=O)(=O)CC2CCN(C)C2)ccn1 (stereo not drawn) [Example 58, N-((4-Fluoro-2-isopropyl-6-(2-methoxypyridin-4-yl)phenyl)carbamoyl)-1-(1-methylpyrrolidin-3-yl)methanesulfonamide] |
| ≤ 5000 | CN(C)CC(C)(C)CS(=O)(=O)NC(=O)Nc1c2c(cc3c1CCC3)CCC2 [Example 81, 3-(Dimethylamino)-N-((1,2,3,5,6,7-hexahydro-s-indacen-4-yl)carbamoyl)-2,2-dimethylpropane-1-sulfonamide] |
| ≤ 7500 | CCN(CCS(=O)(=O)NC(=O)Nc1c2c(cc3c1CCC3)CCC2)Cc1ccccc1 [Example 11, 2-(Benzyl(ethyl)amino)-N-((1,2,3,5,6,7-hexahydro-s-indacen-4-yl)carbamoyl)ethane-1-sulfonamide, potassium salt] |
| ≤ 10000 | CN(CCCS(=O)(=O)NC(=O)Nc1c2c(cc3c1CCC3)CCC2)Cc1ccccc1 [Example 67, 3-(Benzyl(methyl)amino)-N-((1,2,3,5,6,7-hexahydro-s-indacen-4-yl)carbamoyl)propane-1-sulfonamide, potassium salt] |
| ≤ 1000 | CCN(CC)CCCS(=O)(=O)NC(=O)Nc1c(-c2ccncc2)cc(F)c2c1CCC2 [Example 44, 3-(Diethylamino)-N-((7-fluoro-5-(pyridin-4-yl)-2,3-dihydro-1H-inden-4-yl)carbamoyl)propane-1-sulfonamide] |
| ≤ 5000 | Cn1cc(CS(=O)(=O)NC(=O)Nc2c3c(cc4c2CCC4)CCC3)cn1 [Example 35, N-((1,2,3,5,6,7-hexahydro-s-indacen-4-yl)carbamoyl)-1-(1-methyl-1H-pyrazol-4-yl)methanesulfonamide] |
| ≤ 1000 | CCN1CCCC1CS(=O)(=O)NC(=O)Nc1c2c(cc3c1CCC3)CCC2 (stereo not drawn) [Example 106, 1-(1-Ethylpyrrolidin-2-yl)-N-((1,2,3,5,6,7-hexahydro-s-indacen-4-yl)carbamoyl)methanesulfonamide] |
| ≤ 7500 | CC(C)n1ccc(CS(=O)(=O)NC(=O)Nc2c3c(cc4c2CCC4)CCC3)n1 [Example 111, N-((1,2,3,5,6,7-Hexahydro-s-indacen-4-yl)carbamoyl)-1-(1-isopropyl-1H-pyrazol-3-yl)methanesulfonamide] |
| ≤ 1000 | CC(=O)N(C)CCCS(=O)(=O)NC(=O)Nc1c2c(cc3c1CCC3)CCC2 [Example 53, N-(3-(N-((1,2,3,5,6,7-Hexahydro-s-indacen-4-yl)carbamoyl)sulfamoyl)propyl)-N-methylacetamide, Potassium Salt] |
| ≤ 5000 | CN1CCOC(CS(=O)(=O)NC(=O)Nc2c3c(cc4c2CCC4)CCC3)C1 (stereo not drawn) [Example 74, N-((1,2,3,5,6,7-Hexahydro-s-indacen-4-yl)carbamoyl)-1-(4-methylmorpholin-2-yl)methanesulfonamide, Potassium Salt] |
| ≤ 1000 | CN1CCC(CS(=O)(=O)NC(=O)Nc2c3c(cc4c2CCC4)CCC3)C1 (stereo not drawn) [Example 23, N-((1,2,3,5,6,7-Hexahydro-s-indacen-4-yl)carbamoyl)-1-(1-methylpyrrolidin-3-yl)methanesulfonamide, Potassium Salt] |
| ≤ 7500 | COC(=O)CCS(=O)(=O)NC(=O)Nc1c2c(cc3c1CCC3)CCC2 [Example 92, Methyl 3-(N-((1,2,3,5,6,7-hexahydro-s-indacen-4-yl)carbamoyl)sulfamoyl)propanoate] |
| ≤ 1000 | COc1cc(-c2ccc3c(c2NC(=O)NS(=O)(=O)CCOC(C)C)CCO3)ccn1 [Example 62, 2-Isopropoxy-N-((5-(2-methoxypyridin-4-yl)-2,3-dihydro-benzofuran-4-yl)carbamoyl)ethanesulfonamide, sodium salt] |
| ≤ 1000 | CC1CCN1CCS(=O)(=O)NC(=O)Nc1c2c(cc3c1CCC3)CCC2 (stereo not drawn) [Example 89, N-((1,2,3,5,6,7-Hexahydro-s-indacen-4-yl)carbamoyl)-2-(2-methylazetidin-1-yl)ethane-1-sulfonamide] |
| ≤ 1000 | CCN1CCCCC1CS(=O)(=O)NC(=O)Nc1c2c(cc3c1CCC3)CCC2 (stereo not drawn) [Example 110, 1-(1-Ethylpiperidin-2-yl)-N-((1,2,3,5,6,7-hexahydro-s-indacen-4-yl)carbamoyl)methanesulfonamide] |

| IC50 [nM] | Compound |
| --- | --- |
| ≤ 5000 | CN1CC2(COC(CS(=O)(=O)NC(=O)Nc3c4c(cc5c3CCC5)CCC4)C2)C1 (stereo not drawn) [Example 80, N-((1,2,3,5,6,7-Hexahydro-s-indacen-4-yl)carbamoyl)-1-(2-methyl-6-oxa-2-azaspiro[3.4]octan-7-yl)methanesulfonamide] |
| ≤ 1000 | CC1CC(C)N1CCS(=O)(=O)NC(=O)Nc1c2c(cc3c1CCC3)CCC2 (stereo not drawn) [Example 103, 2-(2,4-Dimethylazetidin-1-yl)-N-((1,2,3,5,6,7-hexahydro-s-indacen-4-yl)carbamoyl)ethane-1-sulfonamide] |
| ≤ 5000 | CCN(CCCCS(=O)(=O)NC(=O)Nc1c2c(cc3c1CCC3)CCC2)Cc1ccccc1 [Example 13, 4-(Benzyl(ethyl)amino)-N-((1,2,3,5,6,7-hexahydro-s-indacen-4-yl)carbamoyl)butane-1-sulfonamide, potassium salt] |
| ≤ 1000 | O=C(Nc1c2c(cc3c1CCC3)CCC2)NS(=O)(=O)CCCN1CCC1 [Example 72, 3-(Azetidin-1-yl)-N-((1,2,3,5,6,7-hexahydro-s-indacen-4-yl)carbamoyl)propane-1-sulfonamide, Potassium Salt] |
| ≤ 1000 | O=C(Nc1c2c(cc3c1CCC3)CCC2)NS(=O)(=O)CCN1CCCCC1 [Example 28, N-((1,2,3,5,6,7-Hexahydro-s-indacen-4-yl)carbamoyl)-2-(piperidin-1-yl)ethane-1-sulfonamide, Potassium Salt] |
| ≤ 1000 | CN1CCCC(CS(=O)(=O)NC(=O)Nc2c3c(cc4c2CCC4)CCC3)C1 (stereo not drawn) [Example 83, N-((1,2,3,5,6,7-Hexahydro-s-indacen-4-yl)carbamoyl)-1-(1-methylpiperidin-3-yl)methanesulfonamide] |
| ≤ 1000 | CC(C)N1CCCC(CS(=O)(=O)NC(=O)Nc2c3c(cc4c2CCC4)CCC3)C1 (stereo not drawn) [Example 93, N-((1,2,3,5,6,7-Hexahydro-s-indacen-4-yl)carbamoyl)-1-(1-isopropylpiperidin-3-yl)methanesulfonamide] |
| ≤ 1000 | CCN(C)CCCS(=O)(=O)NC(=O)Nc1c2c(cc3c1CCC3)CCC2 [Example 27, 3-(Ethyl(methyl)amino)-N-((1,2,3,5,6,7-hexahydro-s-indacen-4-yl)carbamoyl)propane-1-sulfonamide, potassium salt] |
| ≤ 5000 | CC(C)C(=O)N(C)CCCS(=O)(=O)NC(=O)Nc1c2c(cc3c1CCC3)CCC2 [Example 95, N-(3-(N-((1,2,3,5,6,7-Hexahydro-s-indacen-4-yl)carbamoyl)sulfamoyl)propyl)-N-methylisobutyramide] |
| ≤ 1000 | CC(CS(=O)(=O)NC(=O)Nc1c2c(cc3c1CCC3)CCC2)N1CCC1 (stereo not drawn) [Example 91, 2-(Azetidin-1-yl)-N-((1,2,3,5,6,7-hexahydro-s-indacen-4-yl)carbamoyl)propane-1-sulfonamide] |
| ≤ 1000 | CC1(C)CCN1CCS(=O)(=O)NC(=O)Nc1c2c(cc3c1CCC3)CCC2 [Example 102, 2-(2,2-Dimethylazetidin-1-yl)-N-((1,2,3,5,6,7-hexahydro-s-indacen-4-yl)carbamoyl)ethane-1-sulfonamide] |
| ≤ 1000 | CCN1CCCC(CS(=O)(=O)NC(=O)Nc2c3c(cc4c2CCC4)CCC3)C1 (stereo not drawn) [Example 84, 1-(1-Ethylpiperidin-3-yl)-N-((1,2,3,5,6,7-hexahydro-s-indacen-4-yl)carbamoyl)methanesulfonamide] |
| ≤ 5000 | COCCCS(=O)(=O)NC(=O)Nc1c2c(cc3c1CCC3)CCC2 [Example 14, N-((1,2,3,5,6,7-Hexahydro-s-indacen-4-yl)carbamoyl)-3-methoxypropane-1-sulfonamide, Potassium Salt] |
| ≤ 1000 | CC(CCS(=O)(=O)NC(=O)Nc1c2c(cc3c1CCC3)CCC2)N(C)C (stereo not drawn) [Example 78, 3-(Dimethylamino)-N-((1,2,3,5,6,7-hexahydro-s-indacen-4-yl)carbamoyl)butane-1-sulfonamide, potassium salt] |
| ≤ 1000 | CC(CN(C)C)CS(=O)(=O)NC(=O)Nc1c2c(cc3c1CCC3)CCC2 (stereo not drawn) [Example 36, 3-(Dimethylamino)-N-((1,2,3,5,6,7-hexahydro-s-indacen-4-yl)carbamoyl)-2-methylpropane-1-sulfonamide, potassium salt] |
| ≤ 1000 | CCN1CCC(CS(=O)(=O)NC(=O)Nc2c3c(cc4c2CCC4)CCC3)CC1 [Example 1, 1-(1-Ethylpiperidin-4-yl)-N-((1,2,3,5,6,7-hexahydro-s-indacen-4-yl)carbamoyl)methanesulfonamide, potassium salt] |

| Compound | IC50 [nM] |
| --- | --- |
| C#CCN(C)CCCS(=O)(=O)NC(=O)Nc1c2c(cc3c1CCC3)CCC2 [Example 73] | ≤ 5000 |

— patent publication US20200331850A1, “NOVEL SULFONAMIDE CARBOXAMIDE COMPOUNDS” (Inflazome Limited, priority 2017, published 2020)
